Laboratory results taken from patent US12077503B2, “Substituted cyclic amides and their use as herbicides” (FMC CORPORATION, priority 2015, dated 2024).

Assays:
Assay type in all cases: in vivo
[1] = test system: barnyardgrass (Echinochloa crus-galli); test: Test G Pre-Emergence Protocol; details: Echinochloa crus-galli, pre-emergence, 312 h, evaluated after 13 days; for pest or weed control at 15.625 g/ha: 15.625 g ai/ha; for pest or weed control at 15.625 g/ha / pest or weed control at 250 g/ha: read-out: Barnyardgrass damage rating (100=total damage to plant; 0=no damage to plant); for pest or weed control at 62.5 g/ha: 62.5 g ai/ha, 100=total damage to plant, 0=no damage to plant, read-out: Barnyardgrass damage rating; for pest or weed control at 250 g/ha: 250 g ai/ha
Outline: (§1)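 One day after sowing, pots are treated with a spray of test compound formulated in acetone/water 50:50 plus 0.5% Tween 20, giving 15.625, 62.5 or 250 g/ha. Evaluation on a 0–100 damage scale follows 13 days of glasshouse growth.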

[2] = test system: corn (Zea mays); test: Test G Pre-Emergence Protocol; details: Zea mays, pre-emergence, 312 h, evaluated after 13 days; for plant injury at 15.625 g/ha: 15.625 g ai/ha; for plant injury at 15.625 g/ha / plant injury at 250 g/ha: read-out: Corn damage rating (100=total damage to plant; 0=no damage to plant); for plant injury at 62.5 g/ha: 62.5 g ai/ha, 100=total damage to plant, 0=no damage to plant, read-out: Corn damage rating; for plant injury at 250 g/ha: 250 g ai/ha
Outline: as §1

[3] = test system: giant foxtail (Setaria faberi); test: Test G Pre-Emergence Protocol; details: Setaria faberi, pre-emergence, 312 h, evaluated after 13 days; for pest or weed control at 15.625 g/ha: 15.625 g ai/ha; for pest or weed control at 15.625 g/ha / pest or weed control at 250 g/ha: read-out: Foxtail, Giant damage rating (100=total damage to plant; 0=no damage to plant); for pest or weed control at 62.5 g/ha: 62.5 g ai/ha, 100=total damage to plant, 0=no damage to plant, read-out: Foxtail, Giant damage rating; for pest or weed control at 250 g/ha: 250 g ai/ha
Outline: as §1

[4] = test system: ivy-leaved morning glory (Ipomoea hederacea); test: Test G Pre-Emergence Protocol; details: Ipomoea, pre-emergence, 312 h, evaluated after 13 days; for pest or weed control at 15.625 g/ha: 15.625 g ai/ha; for pest or weed control at 15.625 g/ha / pest or weed control at 250 g/ha: read-out: Morningglory, Ivy-leaved damage rating (100=total damage to plant; 0=no damage to plant); for pest or weed control at 250 g/ha: 250 g ai/ha
Outline: as §1

[5] = test system: redroot pigweed (Amaranthus retroflexus); test: Test G Pre-Emergence Protocol; details: Amaranthus retroflexus, pre-emergence, 312 h, evaluated after 13 days; for pest or weed control at 15.625 g/ha: 15.625 g ai/ha; for pest or weed control at 15.625 g/ha / pest or weed control at 250 g/ha: read-out: Pigweed, Redroot damage rating (100=total damage to plant; 0=no damage to plant); for pest or weed control at 62.5 g/ha: 62.5 g ai/ha, 100=total damage to plant, 0=no damage to plant, read-out: Pigweed, Redroot damage rating; for pest or weed control at 250 g/ha: 250 g ai/ha
Outline: as §1

[6] = test system: velvetleaf (Abutilon theophrasti); test: Test G Pre-Emergence Protocol; details: Abutilon theophrasti, pre-emergence, 312 h, evaluated after 13 days; for pest or weed control at 15.625 g/ha: 15.625 g ai/ha; for pest or weed control at 15.625 g/ha / pest or weed control at 250 g/ha: read-out: Velvetleaf damage rating (100=total damage to plant; 0=no damage to plant); for pest or weed control at 62.5 g/ha: 62.5 g ai/ha, 100=total damage to plant, 0=no damage to plant, read-out: Velvetleaf damage rating; for pest or weed control at 250 g/ha: 250 g ai/ha
Outline: as §1

[7] = test system: barnyardgrass (Echinochloa crus-galli); test: Test G Post-Emergence Protocol; details: Echinochloa crus-galli, post-emergence, 312 h, read-out: Barnyardgrass damage rating; for pest or weed control at 15.625 g/ha: 15.625 g ai/ha, evaluated after 13 days (100=total damage to plant; 0=no damage to plant); for pest or weed control at 62.5 g/ha: 62.5 g ai/ha; for pest or weed control at 62.5 g/ha / pest or weed control at 250 g/ha: evaluated after 13 days, 100=total damage to plant, 0=no damage to plant; for pest or weed control at 250 g/ha: 250 g ai/ha
Outline: (§2)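 Foliar application was made 8 days after sowing, using an aqueous spray of the active in acetone/water (50:50) with 0.5% Tween 20, at doses of 15.625, 62.5 or 250 g/ha. Injury was assessed 13 days later, where 100 meant the plant was fully damaged.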

[8] = test system: corn (Zea mays); test: Test G Post-Emergence Protocol; details: Zea mays, post-emergence, 312 h, read-out: Corn damage rating; for plant injury at 15.625 g/ha: 15.625 g ai/ha, evaluated after 13 days (100=total damage to plant; 0=no damage to plant); for plant injury at 62.5 g/ha: 62.5 g ai/ha; for plant injury at 62.5 g/ha / plant injury at 250 g/ha: evaluated after 13 days, 100=total damage to plant, 0=no damage to plant; for plant injury at 250 g/ha: 250 g ai/ha
Outline: as §2

[9] = test system: giant foxtail (Setaria faberi); test: Test G Post-Emergence Protocol; details: Setaria faberi, post-emergence, 312 h, read-out: Foxtail, Giant damage rating; for pest or weed control at 15.625 g/ha: 15.625 g ai/ha, evaluated after 13 days (100=total damage to plant; 0=no damage to plant); for pest or weed control at 62.5 g/ha: 62.5 g ai/ha; for pest or weed control at 62.5 g/ha / pest or weed control at 250 g/ha: evaluated after 13 days, 100=total damage to plant, 0=no damage to plant; for pest or weed control at 250 g/ha: 250 g ai/ha
Outline: as §2

[10] = test system: ivy-leaved morning glory (Ipomoea hederacea); test: Test G Post-Emergence Protocol; details: Ipomoea, post-emergence, 312 h, read-out: Morningglory, Ivy-leaved damage rating; for pest or weed control at 15.625 g/ha: 15.625 g ai/ha, evaluated after 13 days (100=total damage to plant; 0=no damage to plant); for pest or weed control at 62.5 g/ha: 62.5 g ai/ha; for pest or weed control at 62.5 g/ha / pest or weed control at 250 g/ha: evaluated after 13 days, 100=total damage to plant, 0=no damage to plant; for pest or weed control at 250 g/ha: 250 g ai/ha
Outline: as §2

[11] = test system: redroot pigweed (Amaranthus retroflexus); test: Test G Post-Emergence Protocol; details: Amaranthus retroflexus, post-emergence, 312 h, read-out: Pigweed, Redroot damage rating; for pest or weed control at 15.625 g/ha: 15.625 g ai/ha, evaluated after 13 days (100=total damage to plant; 0=no damage to plant); for pest or weed control at 62.5 g/ha: 62.5 g ai/ha; for pest or weed control at 62.5 g/ha / pest or weed control at 250 g/ha: evaluated after 13 days, 100=total damage to plant, 0=no damage to plant; for pest or weed control at 250 g/ha: 250 g ai/ha
Outline: as §2

[12] = test system: velvetleaf (Abutilon theophrasti); test: Test G Post-Emergence Protocol; details: Abutilon theophrasti, post-emergence, 312 h, read-out: Velvetleaf damage rating; for pest or weed control at 15.625 g/ha: 15.625 g ai/ha, evaluated after 13 days (100=total damage to plant; 0=no damage to plant); for pest or weed control at 62.5 g/ha: 62.5 g ai/ha; for pest or weed control at 62.5 g/ha / pest or weed control at 250 g/ha: evaluated after 13 days, 100=total damage to plant, 0=no damage to plant; for pest or weed control at 250 g/ha: 250 g ai/ha
Outline: as §2

SMILES: CSc1ccncc1NC(=O)[C@H]1C(=O)N(C)C[C@@H]1c1cccc(C(F)(F)F)c1 (racemic) [Compound 1750]
- pest or weed control at 15.625 g/ha [1]: 0%
- pest or weed control at 62.5 g/ha [1]: 10%
- pest or weed control at 250 g/ha [1]: 10%
- plant injury at 15.625 g/ha [2]: 0%
- plant injury at 62.5 g/ha [2]: 0%
- plant injury at 250 g/ha [2]: 10%
- pest or weed control at 15.625 g/ha [3]: 0%
- pest or weed control at 62.5 g/ha [3]: 20%
- pest or weed control at 250 g/ha [3]: 70%
- pest or weed control at 15.625 g/ha [4]: 0%
- pest or weed control at 62.5 g/ha ([4]; 62.5 g ai/ha, 100=total damage to plant, 0=no damage to plant, read-out: Morningglory, Ivy-leaved damage rating): 0%
- pest or weed control at 250 g/ha [4]: 0%
- pest or weed control at 15.625 g/ha [5]: 0%
- pest or weed control at 62.5 g/ha [5]: 0%
- pest or weed control at 250 g/ha [5]: 0%
- pest or weed control at 15.625 g/ha [6]: 0%
- pest or weed control at 62.5 g/ha [6]: 0%
- pest or weed control at 250 g/ha [6]: 0%
- pest or weed control at 15.625 g/ha [7]: 0%
- pest or weed control at 62.5 g/ha [7]: 0%
- pest or weed control at 250 g/ha [7]: 20%
- plant injury at 15.625 g/ha [8]: 0%
- plant injury at 62.5 g/ha [8]: 10%
- plant injury at 250 g/ha [8]: 10%
- pest or weed control at 15.625 g/ha [9]: 0%
- pest or weed control at 62.5 g/ha [9]: 0%
- pest or weed control at 250 g/ha [9]: 50%
- pest or weed control at 15.625 g/ha [10]: 0%
- pest or weed control at 62.5 g/ha [10]: 10%
- pest or weed control at 250 g/ha [10]: 10%
- pest or weed control at 15.625 g/ha [11]: 0%
- pest or weed control at 62.5 g/ha [11]: 10%
- pest or weed control at 250 g/ha [11]: 20%
- pest or weed control at 15.625 g/ha [12]: 0%
- pest or weed control at 62.5 g/ha [12]: 0%
- pest or weed control at 250 g/ha [12]: 0%

SMILES: CON1C[C@H](c2ccc(F)c(F)c2)[C@@H](C(=O)Nc2ccc(F)c(F)c2F)C1=O [Compound 1679]
- pest or weed control at 15.625 g/ha [1]: 50%
- pest or weed control at 62.5 g/ha [1]: 80%
- pest or weed control at 250 g/ha [1]: 90%
- plant injury at 15.625 g/ha [2]: 0%
- plant injury at 62.5 g/ha [2]: 0%
- plant injury at 250 g/ha [2]: 60%
- pest or weed control at 15.625 g/ha [3]: 90%
- pest or weed control at 62.5 g/ha [3]: 90%
- pest or weed control at 250 g/ha [3]: 90%
- pest or weed control at 15.625 g/ha [4]: 0%
- pest or weed control at 250 g/ha [4]: 10%
- pest or weed control at 15.625 g/ha [5]: 10%
- pest or weed control at 62.5 g/ha [5]: 10%
- pest or weed control at 250 g/ha [5]: 30%
- pest or weed control at 15.625 g/ha [6]: 10%
- pest or weed control at 62.5 g/ha [6]: 10%
- pest or weed control at 250 g/ha [6]: 60%
- pest or weed control at 15.625 g/ha [7]: 40%
- pest or weed control at 62.5 g/ha [7]: 80%
- pest or weed control at 250 g/ha [7]: 90%
- plant injury at 15.625 g/ha [8]: 0%
- plant injury at 62.5 g/ha [8]: 0%
- plant injury at 250 g/ha [8]: 60%
- pest or weed control at 15.625 g/ha [9]: 80%
- pest or weed control at 62.5 g/ha [9]: 80%
- pest or weed control at 250 g/ha [9]: 80%
- pest or weed control at 15.625 g/ha [10]: 0%
- pest or weed control at 62.5 g/ha [10]: 50%
- pest or weed control at 250 g/ha [10]: 40%
- pest or weed control at 15.625 g/ha [11]: 0%
- pest or weed control at 62.5 g/ha [11]: 30%
- pest or weed control at 250 g/ha [11]: 50%
- pest or weed control at 15.625 g/ha [12]: 0%
- pest or weed control at 62.5 g/ha [12]: 20%
- pest or weed control at 250 g/ha [12]: 40%
